Patent US20130123481A1, “MODIFIED NUCLEOSIDES, NUCLEOTIDES, AND NUCLEIC ACIDS, AND USES THEREOF” (MODERNA THERAPEUTICS, priority 2011, published 2013)
One block for each molecule: values may come before it.

What was measured:
[1] = test system: peripheral blood mononuclear cells (PBMC); experiment: In Vitro Screening in PBMC - G-CSF protein expression; assay type: cell-based, human; settings: 500 ng mRNA
Source text: (§1) The supernatant was harvested and stored frozen until analyzed by ELISA to determine the G-CSF protein expression, and the induction of the cytokines interferon-alpha (IFN-α) and tumor necrosis factor alpha (TNF-α).

Balb-C mice = experiment: In Vivo Screening of Luciferase Modified mRNA (bioluminescence, total flux); settings: fully modified luciferase mRNA in 1×PBS, subcutaneous, 42 to 103 ug, imaged 8 hours after dosing, total flux of entire mouse
Protocol: A control of PBS was also tested. The dosages of the modified luciferase mRNA is also outlined in Table 31. 8 hours after dosing the mice were imaged to determine luciferase expression. Twenty minutes prior to imaging, mice were injected intraperitoneally with a D-luciferin solution at 150 mg/kg. Animals were then anesthetized and images were acquired with an IVIS Lumina II imaging system (Perkin Elmer). Bioluminescence was measured as total flux (photons/second) of the entire mouse.

HeLa cells = experiment: G-CSF expression in HeLa cells (ELISA); assay type: cell-based, human; settings: fully modified G-CSF mRNA transfected in HeLa cells, ELISA
Protocol: (§2) To assess the activity of all our different chemical modifications in the context of a second open reading frame, we replicated experiments previously conducted using luciferase mRNA, with human G-CSF mRNA. […] The mutant T7 polymerase was obtained commercially (Durascribe® T7 Transcription kit (Cat. No. DS010925) (Epicentre®, Madison, Wis.).
(§3) The modified RNA in Tables 45 and 46 were transfected in vitro in HeLa cells or added to rabbit reticulysates (250 ng of modified mRNA) as indicated. […] In Table 45, “NT” means not tested.

rabbit reticulysates = experiment: G-CSF expression in rabbit reticulysates (ELISA); assay type: biochemical; settings: 250 ng modified G-CSF mRNA in rabbit reticulysates
Protocol: as §2, §3

[2] = test system: Salmonella tester strains (TA97a, TA98, TA100 and TA1535) and Escherichia coli strain (WP2 uvrA pKM101); experiment: Microames Reverse Mutation Screen; settings: for Cytotoxicity (reduction in the background lawn and/or number of revertants) / increase in the number of revertant colonies as compared with the vehicle control: any strain, with or without metabolic activation; for mutagenic (microAmes screen): up to 250 ug/well, strains TA97a, TA98, TA100, TA1535 and WP2 uvrA pKM101 with or without metabolic activation
Protocol: The microames screen is a version of the full Ames preincubation assay. It detects both frameshift and base-pair substitution mutations using four Salmonella tester strains (TA97a, TA98, TA100 and TA1535) and one Escherichia coli strain (WP2 uvrA pKM101). Strains TA97a and TA98 detect frameshift mutations, and TA100, TA1535 and WP2 uvrA pKM101 detect base-pair substitution mutations. This scaled-down Ames test uses minimal compound, is conducted with and without metabolic activation (S9 fraction), and uses multiwell plates. This teste is a microbial assay to detect the mutagenic potential of test compounds.
Positive control compounds were used at 4 different concentrations to ensure the assay system was sensitive to known mutagenic compounds. DMSO was used as the vehicle control.

[3] = test system: peripheral blood mononuclear cells (PBMC), interferon-alpha (IFN-α); assay type: cell-based, human; settings: for IFN-α Expression (pg/ml) Donor 1 / IFN-α Expression (pg/ml) Donor 2 / IFN-α Expression (pg/ml) Donor 3: 500 ng fully modified G-CSF mRNA; for IFN-α Expression (pg/ml) Donor 1: Lipofectamine 2000, PBMC Donor 1, supernatant ELISA; for IFN-α Expression (pg/ml) Donor 2: Lipofectamine 2000, PBMC Donor 2, supernatant ELISA; for IFN-α Expression (pg/ml) Donor 3: Lipofectamine 2000, PBMC Donor 3, supernatant ELISA
Source text: as §1

[4] = test system: peripheral blood mononuclear cells (PBMC), tumor necrosis factor alpha (TNF-α); experiment: In Vitro Screening in PBMC - tumor necrosis factor alpha (TNF-α) induction; assay type: cell-based, human; settings: 500 ng fully modified G-CSF mRNA; for TNF-α Expression (pg/ml) Donor 1: Lipofectamine 2000, PBMC Donor 1, supernatant ELISA; for TNF-α Expression (pg/ml) Donor 2: Lipofectamine 2000, PBMC Donor 2, supernatant ELISA; for TNF-α Expression (pg/ml) Donor 3: Lipofectamine 2000, PBMC Donor 3, supernatant ELISA
Source text: as §1

wild-type T7 polymerase = wild-type T7 polymerase (Escherichia phage T7, UniProt P00573); experiment: In Vitro Transcription with Wild-Type T7 Polymerase (transcription and capping yield); settings: OD260; for In vitro transcription Yield: wild-type T7 polymerase; for Capping reaction Yield: enzymatic capping
Chain of wild-type T7 polymerase (P00573 whole entry): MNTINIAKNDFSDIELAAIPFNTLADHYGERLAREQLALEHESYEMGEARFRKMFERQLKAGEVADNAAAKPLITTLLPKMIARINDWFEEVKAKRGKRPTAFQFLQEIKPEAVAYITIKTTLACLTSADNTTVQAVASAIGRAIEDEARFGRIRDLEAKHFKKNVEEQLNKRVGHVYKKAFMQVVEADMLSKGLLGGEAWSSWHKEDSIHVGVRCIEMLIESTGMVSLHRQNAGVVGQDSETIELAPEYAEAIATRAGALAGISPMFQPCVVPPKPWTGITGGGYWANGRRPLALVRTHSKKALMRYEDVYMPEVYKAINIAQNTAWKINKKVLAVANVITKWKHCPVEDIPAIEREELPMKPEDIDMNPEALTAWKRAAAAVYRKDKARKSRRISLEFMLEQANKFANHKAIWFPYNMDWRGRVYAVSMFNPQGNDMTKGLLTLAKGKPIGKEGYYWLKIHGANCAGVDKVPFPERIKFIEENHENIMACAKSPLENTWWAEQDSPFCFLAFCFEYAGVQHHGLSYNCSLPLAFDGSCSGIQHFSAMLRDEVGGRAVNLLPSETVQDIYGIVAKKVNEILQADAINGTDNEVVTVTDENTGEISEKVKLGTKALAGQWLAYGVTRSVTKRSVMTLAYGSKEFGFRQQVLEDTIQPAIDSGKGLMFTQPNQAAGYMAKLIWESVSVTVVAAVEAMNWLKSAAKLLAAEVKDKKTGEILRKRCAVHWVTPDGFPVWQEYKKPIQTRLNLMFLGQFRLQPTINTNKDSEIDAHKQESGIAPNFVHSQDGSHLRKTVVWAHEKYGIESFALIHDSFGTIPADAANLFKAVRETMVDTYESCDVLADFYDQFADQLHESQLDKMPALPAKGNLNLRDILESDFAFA
Protocol: The luciferase and G-CSF modified mRNA were also subjected to an enzymatic capping reaction and each modified mRNA capping reaction was evaluated for yield by spectrophometic measurement (OD260) and correct size assessed using bioanalyzer.

[5] = test system: peripheral blood mononuclear cells (PBMC); experiment: In Vitro PBMC Studies: Percent modification - G-CSF expression; assay type: cell-based, human; settings: average of PBMC donors D1-D3
Protocol: 480 ng of G-CSF mRNA modified with 5-methylcytosine (5mC) and pseudouridine (pseudoU) or unmodified G-CSF mRNA was transfected with 0.4 uL of Lipofectamine 2000 into peripheral blood mononuclear cells (PBMC) from three normal blood donors (D1, D2, and D3). […] The supernatant was harvested and run by ELISA 22 hours after transfection to determine the protein expression. The expression of IFN-alpha and TNF-alpha may be a secondary effect from the transfection of the G-CSF mRNA.

[6] = test system: peripheral blood mononuclear cells (PBMC), IFN-alpha; experiment: In Vitro PBMC Studies: Percent modification - IFN-alpha expression; assay type: cell-based, human
Protocol: (§4) The supernatant was harvested and run by ELISA 22 hours after transfection to determine the protein expression.

[7] = test system: peripheral blood mononuclear cells (PBMC), TNF-alpha; experiment: In Vitro PBMC Studies: Percent modification - TNF-alpha expression; assay type: cell-based, human
Protocol: as §4

[8] = Stability of Modified RNA - storage, gel electrophoresis; assay type: physicochemical
Protocol: Stability experiments were conducted to obtain a better understanding of storage conditions to retain the integrity of modified RNA. […] After the mRNA had been stored for 0 hours, 2 hours, 6 hours, 24 hours, 48 hours, 5 days and 14 days, the mRNA was analyzed by gel electrophoresis using a Bio-Rad EXPERION™ system. The modified, unmodified and lipoplexed G-CSF mRNA was also stored in RNASTABLE® (Biomatrica, Inc. San Diego, Calif.) at 40° C. or water at −80° C. or 40° C. for 35 days before being analyzed by gel electrophoresis.

[9] = PBMC Donor 1, 0.4 uL Lipofectamine 2000
[10] = G-CSF modified mRNA (wild-type T7)
[11] = Luciferase modified mRNA (wild-type T7)

Molecule: O=c1[nH]c(=O)n([C@@H]2O[C@H](CO)[C@@H](O)[C@H]2O)cc1Br [5-bromouridine]
G-CSF Protein Expression [1, 9]: 314 pg/mL
G-CSF Protein Expression ([1]; PBMC Donor 2): 482 pg/mL
G-CSF Protein Expression ([1]; PBMC Donor 3): 291 pg/mL
Luciferase expression (photon/second) (Balb-C mice): 3.75E+07 photon/second

Molecule: Cn1cc([C@@H]2O[C@H](CO)[C@@H](O)[C@H]2O)c(=O)[nH]c1=O [Compound 1-methylpseudouridine, 1-methylpseudouridine]
Luciferase expression (photon/second) (Balb-C mice): 7.40E+07 photon/second

Molecule: O=c1[nH]cc([C@@H]2O[C@H](CO)[C@@H](O)[C@H]2O)c(=O)[nH]1 [pseudouridine, Pseudouridine]
G-CSF Protein Expression [1, 9]: 2477 pg/mL
G-CSF Protein Expression ([1]; PBMC Donor 2): 1,909 pg/ml
G-CSF Protein Expression ([1]; PBMC Donor 3): 1,498 pg/ml
Luciferase expression (photon/second) (Balb-C mice): 1.36E+07 photon/second
G-CSF protein (pg/ml) HeLa cells (HeLa cells): 1,150,909 pg/ml
G-CSF protein (pg/ml) Rabbit reticulysates cells (rabbit reticulysates): 147,875 pg/ml

Molecule: Cc1cn([C@@H]2O[C@H](CO)[C@@H](O)[C@H]2O)c(=O)nc1N [5-Methylcytidine, reference compound]
Cytotoxicity (reduction in the background lawn and/or number of revertants) [2]: not observed
increase in the number of revertant colonies as compared with the vehicle control [2]: no increase
mutagenic (microAmes screen) [2]: not mutagenic
G-CSF Protein Expression [1, 9]: 291 pg/mL
G-CSF Protein Expression ([1]; PBMC Donor 2): 277 pg/mL
G-CSF Protein Expression ([1]; PBMC Donor 3): 359 pg/mL
IFN-α Expression (pg/ml) Donor 1 [3]: 643 pg/mL
IFN-α Expression (pg/ml) Donor 2 [3]: 359 pg/mL
IFN-α Expression (pg/ml) Donor 3 [3]: 529 pg/mL
TNF-α Expression (pg/ml) Donor 1 [4]: 176 pg/mL
TNF-α Expression (pg/ml) Donor 2 [4]: 136 pg/mL
TNF-α Expression (pg/ml) Donor 3 [4]: 193 pg/mL
Luciferase expression (photon/second) (Balb-C mice): 1.94E+07 photon/second
In vitro transcription Yield (wild-type T7 polymerase; G-CSF mRNA): 2.05 mg
Capping reaction Yield (wild-type T7 polymerase; [10]): 1.08 mg
In vitro transcription Yield (wild-type T7 polymerase; Luciferase mRNA): 1.29 mg
Capping reaction Yield (wild-type T7 polymerase; [11]): 1.02 mg

Molecule: CN(C)c1nc2c(ncn2[C@@H]2O[C@H](CO)[C@@H](O)[C@H]2O)c(=O)[nH]1 [Compound 50, N,N-dimethyl guanosine]
Average G-CSF [5]: 189 pg/mL
Average IFN-a [6]: 376 pg/mL
Average TNF-a [7]: 28 pg/mL

Molecule: Cc1cn([C@@H]2O[C@H](CO)[C@@H](O)[C@H]2O)c(=O)[nH]c1=O [5-methyluridine]
G-CSF Protein Expression [1, 9]: 318 pg/mL
G-CSF Protein Expression ([1]; PBMC Donor 2): 359 pg/mL
G-CSF Protein Expression ([1]; PBMC Donor 3): 345 pg/mL
Luciferase expression (photon/second) (Balb-C mice): 7.42E+06 photon/second
G-CSF protein (pg/ml) HeLa cells (HeLa cells): 347,045 pg/ml
G-CSF protein (pg/ml) Rabbit reticulysates cells (rabbit reticulysates): 147,250 pg/ml

Molecule: CC(=O)Nc1ccn([C@@H]2O[C@H](CO)[C@@H](O)[C@H]2O)c(=O)n1 [N4-acetylcytidine]
G-CSF Protein Expression [1, 9]: 50 pg/mL
G-CSF Protein Expression ([1]; PBMC Donor 2): 136 pg/mL
G-CSF Protein Expression ([1]; PBMC Donor 3): 36 pg/mL
Luciferase expression (photon/second) (Balb-C mice): 1.11E07 photon/second
G-CSF protein (pg/ml) HeLa cells (HeLa cells): 39,545 pg/ml
G-CSF protein (pg/ml) Rabbit reticulysates cells (rabbit reticulysates): 8,000 pg/ml

Average IFN-a [6]: 545 pg/mL
Average TNF-a [7]: 44 pg/mL
Molecule: C[C@]1(CO)O[C@@H](n2ccc(N)nc2=O)[C@H](O)[C@@H]1O [Compound 25, 4′-C-methyl cytidine]
Average G-CSF [5]: 122 pg/mL

Molecule: Cn1cc([C@@H]2O[C@H](CO)[C@@H](O)[C@H]2O)c(=O)[nH]c1=O [N1-methylpseudouridine]
Cytotoxicity (reduction in the background lawn and/or number of revertants) [2]: not observed
increase in the number of revertant colonies as compared with the vehicle control [2]: no increase
mutagenic (microAmes screen) [2]: not mutagenic
G-CSF Protein Expression [1, 9]: 21,495 pg/ml
G-CSF Protein Expression ([1]; PBMC Donor 2): 16,550 pg/ml
G-CSF Protein Expression ([1]; PBMC Donor 3): 12,441 pg/ml
cytokine induction (in words) [3]: no cytokine induction
IFN-α Expression (pg/ml) Donor 1 [3]: 26 pg/mL
IFN-α Expression (pg/ml) Donor 2 [3]: 75 pg/mL
IFN-α Expression (pg/ml) Donor 3 [3]: 138 pg/mL
TNF-α Expression (pg/ml) Donor 1 [4]: 101 pg/mL
TNF-α Expression (pg/ml) Donor 2 [4]: 106 pg/mL
TNF-α Expression (pg/ml) Donor 3 [4]: 134 pg/mL
In vitro transcription Yield (wild-type T7 polymerase; G-CSF mRNA): 3.24 mg
Capping reaction Yield (wild-type T7 polymerase; [10]): 2.58 mg
In vitro transcription Yield (wild-type T7 polymerase; Luciferase mRNA): 1.43 mg
Capping reaction Yield (wild-type T7 polymerase; [11]): 1.27 mg
G-CSF protein (pg/ml) Rabbit reticulysates cells (rabbit reticulysates): 230,000 pg/ml

B1: Modified G-CSF mRNA: G-CSF mRNA fully modified with 5-methylcytosine and pseudouridine, with or without lipoplex (0.75% RNAIMAX) (nucleic acid, listed as Homo Sapiens)
chain: GGGAAAUAAGAGAGAAAAGAAGAGUAAGAAGAAAUAUAAGAGCCACCAUGGCCGGUCCCGCGACCCAAAGCCCCAUGAAACUUAUGGCCCUGCAGUUGCUGCUUUGGCACUCGGCCCUCUGGACAGUCCAAGAAGCGACUCCUCUCGGACCUGCCUCAUCGUUGCCGCAGUCAUUCCUUUUGAAGUGUCUGGAGCAGGUGCGAAAGAUUCAGGGCGAUGGAGCCGCACUCCAAGAGAAGCUCUGCGCGACAUACAAACUUUGCCAUCCCGAGGAGCUCGUACUGCUCGGGCACAGCUUGGGGAUUCCCUGGGCUCCUCUCUCGUCCUGUCCGUCGCAGGCUUUGCAGUUGGCAGGGUGCCUUUCCCAGCUCCACUCCGGUUUGUUCUUGUAUCAGGGACUGCUGCAAGCCCUUGAGGGAAUCUCGCCAGAAUUGGGCCCGACGCUGGACACGUUGCAGCUCGACGUGGCGGAUUUCGCAACAACCAUCUGGCAGCAGAUGGAGGAACUGGGGAUGGCACCCGCGCUGCAGCCCACGCAGGGGGCAAUGCCGGCCUUUGCGUCCGCGUUUCAGCGCAGGGCGGGUGGAGUCCUCGUAGCGAGCCACCUUCAAUCAUUUUUGGAAGUCUCGUACCGGGUGCUGAGACAUCUUGCGCAGCCGUGAAGCGCUGCCUUCUGCGGGGCUUGCCUUCUGGCCAUGCCCUUCUUCUCUCCCUUGCACCUGUACCUCUUGGUCUUUGAAUAAAGCCUGAGUAGGAAG
modifications: 5mC/pseudoU; Cap1; polyA tail
freeze/thaw cycles tolerated [8]: 12 freeze/thaw cycles
stable out to ([8]; stored at 25° C.): 120 h
stable out to ([8]; stored at 37° C.): 24 h
stable out to ([8]; stored at 50° C.): 6 h
